In US20140107021A1 (priority 2010, published 2014):
Where two headings read alike, the source gives them in different places. Numbered stars: 1 amine (or outer) side, 2 acyl side, 3 side chain; on linkers, the order of the positions; unused ones are H or OH. Square brackets hold non-standard residues; d marks the D form. Side chains are listed from the residue outwards. Ends that are not written are not given here. γGlu = O=C(O)[C@H](CCC(=O)[*:2])N[*:1]; C16 acyl = 16 carbon fatty acyl group; Aib = CC(C)(N)C(=O)O

Experiments:
GIP receptor = target: T1, GIP receptor (Homo sapiens, UniProt P48546); experiment: cAMP induction at the GIP receptor (agonist activity), luciferase reporter assay in HEK293 cells; format: cell-based; conditions: for EC50: read-out: GIPR EC50
T1 construct: expressed in transfected cells; host or cells: HEK293
T1 sequence (P48546 22-466): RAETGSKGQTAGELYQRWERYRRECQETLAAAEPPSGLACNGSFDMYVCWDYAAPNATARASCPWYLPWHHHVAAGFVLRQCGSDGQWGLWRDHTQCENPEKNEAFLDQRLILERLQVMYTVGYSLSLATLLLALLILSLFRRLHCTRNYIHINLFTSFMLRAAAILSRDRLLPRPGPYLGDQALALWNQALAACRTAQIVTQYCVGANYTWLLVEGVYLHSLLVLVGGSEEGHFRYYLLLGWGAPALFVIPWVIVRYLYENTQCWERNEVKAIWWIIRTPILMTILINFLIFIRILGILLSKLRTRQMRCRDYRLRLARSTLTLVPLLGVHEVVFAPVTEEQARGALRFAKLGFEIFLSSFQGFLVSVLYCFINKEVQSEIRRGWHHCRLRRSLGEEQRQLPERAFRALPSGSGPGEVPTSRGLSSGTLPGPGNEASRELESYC
Description: (§1) HEK293 cells co-transfected with the receptor and luciferase gene linked to a cAMP responsive element were employed for the bioassay.
(§2) All EC50s and IC50s are reported in the following examples in nM, unless indicated otherwise.

GLP-1 receptor = target: T2, GLP-1 receptor (Homo sapiens, UniProt P43220); experiment: cAMP induction at the GLP-1 receptor (agonist activity), firefly luciferase reporter assay in HEK293 cells; format: cell-based
T2 construct: expressed in transfected cells; host or cells: HEK293
Description: as §1, §2

[1] = Example 10: MT-263 under varied administration regimen in diet-induced obesity mice, 6 day study; format: in vivo, Diet-induced obesity (DIO) mice; conditions: injected on a daily basis (10 nmol/kg), compared with every 2 or 3 days
Experimental: Diet-induced obesity (DIO) mice (N=8, 10 mice per group) were injected during the course of the 6 day study as follows: […]

glucagon receptor = glucagon receptor (Homo sapiens, UniProt P47871); experiment: cAMP induction at the glucagon receptor (agonist activity), luciferase reporter assay in HEK293 cells; format: cell-based; set-up: expressed in transfected cells; host or cells: HEK293; conditions: for EC50: read-out: GR EC50
Description: as §1, §2

[2] = format: in vivo, C57Bl/6 mice; conditions: 30 nmol/kg subcutaneously daily for one week
[3] = Example 8: acylated peptides injected subcutaneously daily for one week into DIO mice; format: in vivo, DIO mice (C57Bl/6 WT); conditions: 10 nmol/kg subcutaneously daily for one week
Experimental: Different doses of acylated peptides comprising a Lys at position 16 and an AIB at position 20 were tested in vivo. […] The mice had been on a high fat diet diet for ˜8 months. Body weight and food intake were measured on days 0, 1, 3, 5, and 7, whereas blood glucose levels were measured on Days 0 and 7 of the experiment. Each test group and control group consisted of 8 mice.

[4] = Table 7, relative to the native ligand of the receptor

Chain of glucagon receptor (P47871 26-477): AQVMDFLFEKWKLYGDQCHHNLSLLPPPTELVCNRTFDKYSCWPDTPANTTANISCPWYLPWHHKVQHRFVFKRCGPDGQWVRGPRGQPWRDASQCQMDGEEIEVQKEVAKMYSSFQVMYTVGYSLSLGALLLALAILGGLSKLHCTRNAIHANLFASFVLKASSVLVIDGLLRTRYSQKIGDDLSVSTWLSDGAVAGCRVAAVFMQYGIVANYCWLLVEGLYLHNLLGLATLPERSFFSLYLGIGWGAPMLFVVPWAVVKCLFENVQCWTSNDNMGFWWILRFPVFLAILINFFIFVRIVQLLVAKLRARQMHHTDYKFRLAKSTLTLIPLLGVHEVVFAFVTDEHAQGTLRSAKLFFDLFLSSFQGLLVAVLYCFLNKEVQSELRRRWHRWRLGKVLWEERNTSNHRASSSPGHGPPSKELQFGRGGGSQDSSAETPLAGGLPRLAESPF
T2 sequence (P43220 24-463): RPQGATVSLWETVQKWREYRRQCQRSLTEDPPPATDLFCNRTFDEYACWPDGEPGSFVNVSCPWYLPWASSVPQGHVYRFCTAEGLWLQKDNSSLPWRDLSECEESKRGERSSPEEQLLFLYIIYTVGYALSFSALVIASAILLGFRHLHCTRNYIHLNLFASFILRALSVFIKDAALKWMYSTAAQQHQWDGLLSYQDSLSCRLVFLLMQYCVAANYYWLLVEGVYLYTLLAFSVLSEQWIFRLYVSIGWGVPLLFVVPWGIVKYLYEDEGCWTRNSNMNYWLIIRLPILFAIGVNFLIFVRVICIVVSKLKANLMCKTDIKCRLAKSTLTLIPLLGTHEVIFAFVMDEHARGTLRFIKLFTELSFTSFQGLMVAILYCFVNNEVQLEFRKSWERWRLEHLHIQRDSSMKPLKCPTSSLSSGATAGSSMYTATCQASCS

Row | Compound | EC50 (GIP receptor; Table 3) [pM] | EC50 (GIP receptor; Table 4) [pM] | EC50 (GLP-1 receptor; Table 3, read-out: GLP-1R EC50) [nM] | decrease in blood glucose levels [1] | EC50 (glucagon receptor; Table 3) [nM] | EC50 (glucagon receptor; Table 4) [nM] | change in blood glucose levels over the course of the 7-day study [2] | weight loss compared with the Exendin-4-like positive control peptide [2] | weight loss over the course of the 7-day study [2] | % Relative Activity at GIPR (GIP receptor; Table 8) [%] | % Relative Activity GLP-1R (GLP-1 receptor; Table 8) [%] | % Relative Activity at GR (glucagon receptor; Table 8) [%] | % Relative Activity at GIPR (GIP receptor; [4]) [%] | % Relative Activity GLP-1R (GLP-1 receptor; [4]) [%] | % Relative Activity at GR (glucagon receptor; [4]) [%] | total change in body weight (%) [3]
1 | CC[C@H](C)[C@H](NC(=O)[C@H](CO)NC(=O)[C@H](Cc1ccc(O)cc1)NC(=O)[C@H](CC(=O)O)NC(=O)[C@H](CO)NC(=O)[C@@H](NC(=O)[C@H](Cc1ccccc1)NC(=O)[C@@H](NC(=O)CNC(=O)[C@H](CCC(=O)O)NC(=O)C(C)(C)NC(=O)[C@@H](N)Cc1ccc(O)cc1)[C@@H](C)O)[C@@H](C)O)C(=O)N[C@@H](Cc1ccc(O)cc1)C(=O)N[C@@H](CC(C)C)C(=O)N[C@@H](CC(=O)O)C(=O)N[C@@H](CCCCN)C(=O)N[C@@H](CCC(N)=O)C(=O)N[C@@H](C)C(=O)N[C@@H](C)C(=O)NC(C)(C)C(=O)N[C@@H](CCC(=O)O)C(=O)N[C@@H](Cc1ccccc1)C(=O)N[C@H](C(=O)N[C@@H](CC(N)=O)C(=O)N[C@@H](Cc1c[nH]c2ccccc12)C(=O)N[C@@H](CC(C)C)C(=O)N[C@@H](CC(C)C)C(=O)N[C@@H](C)C(=O)NCC(=O)NCC(=O)N1CCC[C@H]1C(=O)N[C@@H](CO)C(=O)N[C@@H](CO)C(=O)NCC(=O)N[C@@H](C)C(=O)N1CCC[C@H]1C(=O)N1CCC[C@H]1C(=O)N1CCC[C@H]1C(=O)N[C@@H](CO)C(=O)N[C@@H](CCCCN)C(N)=O)C(C)C [mt-263, Y1Aib2E3I12K16Q17A18Aib20E21N24-LAG27-29-CEX-K] | 5.4 | 3.3 | 0.01 | biggest decrease in blood glucose levels | 4.04 | 3.14 | greatest change in blood glucose levels | substantially greater than the Exendin-4-like positive control peptide | significant weight loss | – | – | – | – | – | – | –
2 | Y1Aib2I12K16Q17A18Aib20E21N24-LAG27-29-CEX-K (YXQGTFTSDYSIYLDKQAAXEFVNWLLAGGPSSGAPPPSK; HELM PEPTIDE1{Y.[Aib].Q.G.T.F.T.S.D.Y.S.I.Y.L.D.K.Q.A.A.[Aib].E.F.V.N.W.L.L.A.G.G.P.S.S.G.A.P.P.P.S.K.[am]}$$$$V2.0; N-terminus assumed; SMILES CC[C@H](C)[C@H](NC(=O)[C@H](CO)NC(=O)[C@H](Cc1ccc(O)cc1)NC(=O)[C@H](CC(=O)O)NC(=O)[C@H](CO)NC(=O)[C@@H](NC(=O)[C@H](Cc1ccccc1)NC(=O)[C@@H](NC(=O)CNC(=O)[C@H](CCC(N)=O)NC(=O)C(C)(C)NC(=O)[C@@H](N)Cc1ccc(O)cc1)[C@@H](C)O)[C@@H](C)O)C(=O)N[C@@H](Cc1ccc(O)cc1)C(=O)N[C@@H](CC(C)C)C(=O)N[C@@H](CC(=O)O)C(=O)N[C@@H](CCCCN)C(=O)N[C@@H](CCC(N)=O)C(=O)N[C@@H](C)C(=O)N[C@@H](C)C(=O)NC(C)(C)C(=O)N[C@@H](CCC(=O)O)C(=O)N[C@@H](Cc1ccccc1)C(=O)N[C@H](C(=O)N[C@@H](CC(N)=O)C(=O)N[C@@H](Cc1c[nH]c2ccccc12)C(=O)N[C@@H](CC(C)C)C(=O)N[C@@H](CC(C)C)C(=O)N[C@@H](C)C(=O)NCC(=O)NCC(=O)N1CCC[C@H]1C(=O)N[C@@H](CO)C(=O)N[C@@H](CO)C(=O)NCC(=O)N[C@@H](C)C(=O)N1CCC[C@H]1C(=O)N1CCC[C@H]1C(=O)N1CCC[C@H]1C(=O)N[C@@H](CO)C(=O)N[C@@H](CCCCN)C(N)=O)C(C)C) [MT-280] | – | – | – | – | – | – | significant decrease in blood glucose levels | – | – | 154 | 225 | 60 | – | – | – | –
3 | Q3I7K16AIB20K10(rErE-C16) (Y[Aib]QGTFISDK([γGlu-γGlu-C16 acyl])SIYLDKQAA[Aib]EFVNWLLAGGPSSGAPPPS-NH2) [MT-385] | – | – | – | – | – | – | – | – | – | – | – | – | 715 | 3 | 239 | lower change in body weight
